# Experimental data from PMC5218480 (PLoS ONE, 2017).
# Tested on: MV-4-11 cells
# Experiment: Gene expression microarray analysis (Affymetrix PrimeView) and GSEA
# Assay type: cell-based, human
# Parameters: RFU PODN (11730768_x_at) / Fold change /veh PODN (11730768_x_at) / RFU LINC00158 (11744669_a_at) / Fold change /veh LINC00158 (11744669_a_at) / RFU DUSP10 (11751237_a_at) / Fold change /veh DUSP10 (11751237_a_at) / RFU ID3 (11757404_x_at) / Fold change /veh ID3 (11757404_x_at) / RFU PLEKHG5 (11737974_s_at) / Fold change /veh PLEKHG5 (11737974_s_at) / RFU LRRC4B (11730491_at) / Fold change /veh LRRC4B (11730491_at) / RFU GIMAP4 (11747438_a_at) / Fold change /veh GIMAP4 (11747438_a_at) / RFU KRT8 (11758183_x_at) / Fold change /veh KRT8 (11758183_x_at) / RFU CNN1 (11734310_a_at) / Fold change /veh CNN1 (11734310_a_at) / RFU VPS37D (11726825_at) / Fold change /veh VPS37D (11726825_at) / RFU C10orf10 (11716522_x_at) / Fold change /veh C10orf10 (11716522_x_at) / RFU KIR2DL2 /// KIR2DL4 /// KIR2DL5A /// KIR2DL5B /// KIR2DS1 /// KIR2DS2 /// KIR2DS3 /// KIR2DS4 /// KIR3DL3 /// KIR3DL3 /// KIR3DS1 (11738374_at) / Fold change /veh KIR2DL2 /// KIR2DL4 /// KIR2DL5A /// KIR2DL5B /// KIR2DS1 /// KIR2DS2 /// KIR2DS3 /// KIR2DS4 /// KIR3DL3 /// KIR3DL3 /// KIR3DS1 (11738374_at) / RFU C1QL1 (11718748_at) / Fold change /veh C1QL1 (11718748_at) / RFU TMPRSS4 (11747572_a_at) / Fold change /veh TMPRSS4 (11747572_a_at) / RFU HAMP (11756126_x_at) / Fold change /veh HAMP (11756126_x_at) / RFU RNFT2 (11725882_a_at) / Fold change /veh RNFT2 (11725882_a_at) / RFU NR4A2 (11747474_a_at) / Fold change /veh NR4A2 (11747474_a_at) / RFU ABCC12 (11746883_a_at) / Fold change /veh ABCC12 (11746883_a_at) / RFU TMEM136 (11760407_x_at) / Fold change /veh TMEM136 (11760407_x_at) / RFU CLDN22 /// WWC2 (11732394_at) / Fold change /veh CLDN22 /// WWC2 (11732394_at) / RFU HLA-DPB1 (11760878_x_at) / Fold change /veh HLA-DPB1 (11760878_x_at) / RFU SPINT1 (11716480_a_at) / Fold change /veh SPINT1 (11716480_a_at) / RFU GAP43 (11754022_s_at) / Fold change /veh GAP43 (11754022_s_at) / RFU A4GNT (11735810_at) / Fold change /veh A4GNT (11735810_at) / RFU PRB3 (11715151_x_at) / Fold change /veh PRB3 (11715151_x_at) / RFU TUBB4B (11761932_at) / Fold change /veh TUBB4B (11761932_at) / RFU CAPN14 (11732068_a_at) / Fold change /veh CAPN14 (11732068_a_at) / RFU TMCC2 (11721928_a_at) / Fold change /veh TMCC2 (11721928_a_at) / RFU IRGQ (11745062_a_at) / Fold change /veh IRGQ (11745062_a_at) / RFU FAM174B (11720279_a_at) / Fold change /veh FAM174B (11720279_a_at) / RFU TMPRSS4 (11748680_a_at) / Fold change /veh TMPRSS4 (11748680_a_at) / RFU FAM212B (11763350_a_at) / Fold change /veh FAM212B (11763350_a_at) / RFU PLEKHG5 (11743358_a_at) / Fold change /veh PLEKHG5 (11743358_a_at) / RFU ZSCAN30 (11745921_a_at) / Fold change /veh ZSCAN30 (11745921_a_at) / RFU CMKLR1 (11741424_a_at) / Fold change /veh CMKLR1 (11741424_a_at) / RFU LOC101060620 /// MAPK8IP1 (11723275_at) / Fold change /veh LOC101060620 /// MAPK8IP1 (11723275_at) / RFU SPTSSB (11747773_x_at) / Fold change /veh SPTSSB (11747773_x_at) / RFU PRSS12 (11739890_at) / Fold change /veh PRSS12 (11739890_at) / RFU BIN1 (11741810_x_at) / Fold change /veh BIN1 (11741810_x_at) / RFU WNT11 (11732464_a_at) / Fold change /veh WNT11 (11732464_a_at) / RFU C10orf10 (11716521_a_at) / Fold change /veh C10orf10 (11716521_a_at) / RFU C5orf56 (11738089_at) / Fold change /veh C5orf56 (11738089_at) / RFU CYB561 (11721691_x_at) / Fold change /veh CYB561 (11721691_x_at) / RFU ANKRD19P (11752326_a_at) / Fold change /veh ANKRD19P (11752326_a_at) / RFU OR2T12 /// OR2T33 /// OR2T8 (11738714_s_at) / Fold change /veh OR2T12 /// OR2T33 /// OR2T8 (11738714_s_at) / RFU VCAN (11748164_a_at) / Fold change /veh VCAN (11748164_a_at) / RFU JSRP1 (11732532_at) / Fold change /veh JSRP1 (11732532_at) / RFU KRTAP10-11 (11738290_x_at) / Fold change /veh KRTAP10-11 (11738290_x_at) / RFU MYO3A (11730013_a_at) / Fold change /veh MYO3A (11730013_a_at) / RFU EBF3 (11725865_a_at) / Fold change /veh EBF3 (11725865_a_at) / RFU CAMK2N1 (11719241_x_at) / Fold change /veh CAMK2N1 (11719241_x_at) / RFU C5orf56 (11738088_a_at) / Fold change /veh C5orf56 (11738088_a_at) / RFU OLFML3 (11715873_a_at) / Fold change /veh OLFML3 (11715873_a_at) / RFU LOC100653217 /// NTM (11731650_a_at) / Fold change /veh LOC100653217 /// NTM (11731650_a_at) / RFU MAPK11 (11762145_a_at) / Fold change /veh MAPK11 (11762145_a_at) / RFU FIZ1 (11724087_x_at) / Fold change /veh FIZ1 (11724087_x_at) / RFU OASL (11726364_x_at) / Fold change /veh OASL (11726364_x_at) / RFU SOX15 (11748057_x_at) / Fold change /veh SOX15 (11748057_x_at) / RFU CD79A (11719716_a_at) / Fold change /veh CD79A (11719716_a_at) / RFU HIST1H1D (11736915_at) / Fold change /veh HIST1H1D (11736915_at) / RFU CASKIN2 (11723855_a_at) / Fold change /veh CASKIN2 (11723855_a_at) / RFU LOC730098 (11760151_x_at) / Fold change /veh LOC730098 (11760151_x_at) / RFU OR4N2 (11742367_at) / Fold change /veh OR4N2 (11742367_at) / RFU PRRT2 (11749266_a_at) / Fold change /veh PRRT2 (11749266_a_at) / RFU SNX32 (11753110_a_at) / Fold change /veh SNX32 (11753110_a_at) / RFU CDHR5 (11726645_a_at) / Fold change /veh CDHR5 (11726645_a_at) / RFU RCAN1 (11760418_a_at) / Fold change /veh RCAN1 (11760418_a_at) / RFU FAM167A (11723789_a_at) / Fold change /veh FAM167A (11723789_a_at) / RFU FAM26E (11764081_at) / Fold change /veh FAM26E (11764081_at) / RFU ISYNA1 (11749810_s_at) / Fold change /veh ISYNA1 (11749810_s_at) / RFU ACY1 (11761880_at) / Fold change /veh ACY1 (11761880_at) / RFU 11764098_at / Fold change /veh 11764098_at / RFU SAMD14 (11745864_x_at) / Fold change /veh SAMD14 (11745864_x_at) / RFU NPB (11741838_a_at) / Fold change /veh NPB (11741838_a_at) / RFU TMPRSS6 (11731388_a_at) / Fold change /veh TMPRSS6 (11731388_a_at) / RFU KRTAP10-2 (11738614_at) / Fold change /veh KRTAP10-2 (11738614_at) / RFU ARHGAP8 /// PRR5-ARHGAP8 (11727945_x_at) / Fold change /veh ARHGAP8 /// PRR5-ARHGAP8 (11727945_x_at) / RFU KRTAP5-7 /// NADSYN1 (11734609_at) / Fold change /veh KRTAP5-7 /// NADSYN1 (11734609_at) / RFU RASL12 (11751679_a_at) / Fold change /veh RASL12 (11751679_a_at) / RFU CDKN2B (11736163_a_at) / Fold change /veh CDKN2B (11736163_a_at) / RFU PRF1 (11729649_at) / Fold change /veh PRF1 (11729649_at) / RFU, ZNF638 /// ZNF638-IT1 / Fold change vs veh, ZNF638 /// ZNF638-IT1 / RFU, PANK3 / Fold change vs veh, PANK3 / RFU, SH3YL1 / Fold change vs veh, SH3YL1 / RFU, ZEB2 / Fold change vs veh, ZEB2 / RFU, NRIP1 / Fold change vs veh, NRIP1 / RFU, PTTG1IP / Fold change vs veh, PTTG1IP / RFU, CAPN2 / Fold change vs veh, CAPN2 / RFU, MED14 / Fold change vs veh, MED14 / RFU, SNORA58 / Fold change vs veh, SNORA58 / RFU, C1orf63 / Fold change vs veh, C1orf63 / RFU, LRRFIP1 / Fold change vs veh, LRRFIP1 / RFU, NDUFAF7 / Fold change vs veh, NDUFAF7 / RFU, SLC12A2 / Fold change vs veh, SLC12A2 / RFU, IBTK / Fold change vs veh, IBTK / RFU, ESF1 / Fold change vs veh, ESF1 / Fold change vs veh, TMEM50B / RFU, TAOK1 / Fold change vs veh, TAOK1 / RFU, ACBD3 / Fold change vs veh, ACBD3 / RFU, TMA16 / Fold change vs veh, TMA16 / RFU, RWDD3 / Fold change vs veh, RWDD3 / RFU, BCAT1 / Fold change vs veh, BCAT1 / RFU, EDEM3 / Fold change vs veh, EDEM3 / RFU, TMEM33 / Fold change vs veh, TMEM33 / RFU, WDR75 / Fold change vs veh, WDR75 / RFU, AHCTF1 / Fold change vs veh, AHCTF1 / RFU, TFRC / Fold change vs veh, TFRC / RFU, ZDHHC17 / Fold change vs veh, ZDHHC17 / RFU, NOM1 / Fold change vs veh, NOM1 / RFU, ARL8B / Fold change vs veh, ARL8B / RFU, ZBTB11 / Fold change vs veh, ZBTB11 / RFU, TAMM41 / Fold change vs veh, TAMM41 / RFU, KIAA1704 /// LOC100996395 / Fold change vs veh, KIAA1704 /// LOC100996395 / RFU, ING1 / Fold change vs veh, ING1 / RFU, TRMT61B / Fold change vs veh, TRMT61B / RFU, FUBP3 / Fold change vs veh, FUBP3 / RFU, TP53 / Fold change vs veh, TP53 / RFU, TNKS2 / Fold change vs veh, TNKS2 / RFU, ZFP14 / Fold change vs veh, ZFP14 / RFU, ACTR2 / Fold change vs veh, ACTR2 / RFU, PPP3R1 / Fold change vs veh, PPP3R1 / RFU, PIK3R1 / Fold change vs veh, PIK3R1 / RFU, HNRNPA1 / Fold change vs veh, HNRNPA1 / RFU, RNF170 / Fold change vs veh, RNF170 / RFU, ZNF28 / Fold change vs veh, ZNF28 / RFU, RNGTT / Fold change vs veh, RNGTT / RFU, OGT / Fold change vs veh, OGT / RFU, BRD1 / Fold change vs veh, BRD1 / RFU, MARS / Fold change vs veh, MARS / RFU, ZNF655 / Fold change vs veh, ZNF655 / RFU, FAHD1 / Fold change vs veh, FAHD1 / RFU, BDP1 / Fold change vs veh, BDP1 / RFU, LRRCC1 / Fold change vs veh, LRRCC1 / RFU, ARID1A / Fold change vs veh, ARID1A / RFU, ZNF146 / Fold change vs veh, ZNF146 / RFU, ZNF330 / Fold change vs veh, ZNF330 / RFU, GPN3 / Fold change vs veh, GPN3 / RFU, C9orf123 / Fold change vs veh, C9orf123 / RFU, N4BP2L2 / Fold change vs veh, N4BP2L2 / RFU, ARFIP1 / Fold change vs veh, ARFIP1 / RFU, FAM179B / Fold change vs veh, FAM179B / RFU, BCL10 / Fold change vs veh, BCL10 / RFU, UHRF1BP1L / Fold change vs veh, UHRF1BP1L / RFU, BET1 / Fold change vs veh, BET1 / RFU, CNOT2 / Fold change vs veh, CNOT2 / RFU, ZNF268 / Fold change vs veh, ZNF268 / Fold change vs veh, ZNF507 / RFU, DGCR2 / Fold change vs veh, DGCR2 / RFU, WDSUB1 / Fold change vs veh, WDSUB1 / Fold change vs veh, HSP90B1 /// MIR3652 / RFU, ADSS / Fold change vs veh, ADSS / RFU, GK / Fold change vs veh, GK / RFU, ZNF148 / Fold change vs veh, ZNF148 / RFU, TAF9 / Fold change vs veh, TAF9 / RFU, SLC1A5 / Fold change vs veh, SLC1A5 / RFU, SLMO2 / Fold change vs veh, SLMO2 / RFU, ABCC4 / Fold change vs veh, ABCC4 / RFU, LOC101060439 /// RAP1B / Fold change vs veh, LOC101060439 /// RAP1B / RFU, RFX7 / Fold change vs veh, RFX7 / RFU, GTPBP10 / Fold change vs veh, GTPBP10 / RFU, CNEP1R1 / Fold change vs veh, CNEP1R1 / RFU, BIVM-ERCC5 /// ERCC5 / Fold change vs veh, BIVM-ERCC5 /// ERCC5 / RFU, ILF3 / Fold change vs veh, ILF3 / RFU 11762660_at / Fold change /veh 11762660_at / RFU VCAN (11757783_s_at) / Fold change /veh VCAN (11757783_s_at) / RFU DDX43 (11728927_at) / Fold change /veh DDX43 (11728927_at) / RFU KRT8 (11758188_x_at) / Fold change /veh KRT8 (11758188_x_at) / RFU NKD1 (11759106_at) / Fold change /veh NKD1 (11759106_at) / RFU SRD5A1 (11742802_a_at) / Fold change /veh SRD5A1 (11742802_a_at) / RFU TPSAB1 /// TPSB2 (11721975_s_at) / Fold change /veh TPSAB1 /// TPSB2 (11721975_s_at) / RFU GSTM3 (11746129_a_at) / Fold change /veh GSTM3 (11746129_a_at) / RFU IL23R (11737362_x_at) / Fold change /veh IL23R (11737362_x_at) / RFU TMEM51 (11727254_a_at) / Fold change /veh TMEM51 (11727254_a_at) / RFU PIWIL2 (11732686_x_at) / Fold change /veh PIWIL2 (11732686_x_at) / RFU ORM1 (11744905_x_at) / Fold change /veh ORM1 (11744905_x_at) / RFU CCDC152 (11743942_at) / Fold change /veh CCDC152 (11743942_at) / RFU ECM1 (11717891_a_at) / Fold change /veh ECM1 (11717891_a_at) / RFU IL23R (11748794_a_at) / Fold change /veh IL23R (11748794_a_at) / RFU TNFAIP8L3 (11732012_x_at) / Fold change /veh TNFAIP8L3 (11732012_x_at) / RFU MBOAT4 (11741988_at) / Fold change /veh MBOAT4 (11741988_at) / RFU 11764193_at / Fold change /veh 11764193_at / RFU TMEM53 (11763286_at) / Fold change /veh TMEM53 (11763286_at) / RFU MAGEB2 (11727129_at) / Fold change /veh MAGEB2 (11727129_at) / RFU TMEM200A (11744735_a_at) / Fold change /veh TMEM200A (11744735_a_at) / RFU CCDC152 (11751479_a_at) / Fold change /veh CCDC152 (11751479_a_at) / RFU FAM211A (11726209_a_at) / Fold change /veh FAM211A (11726209_a_at) / RFU RGS16 (11746705_a_at) / Fold change /veh RGS16 (11746705_a_at) / RFU VCAN (11755009_s_at) / Fold change /veh VCAN (11755009_s_at) / RFU RHOB (11743442_s_at) / Fold change /veh RHOB (11743442_s_at) / RFU RGS16 (11720943_a_at) / Fold change /veh RGS16 (11720943_a_at) / RFU RGS16 (11720944_at) / Fold change /veh RGS16 (11720944_at) / RFU, VPS4B / Fold change vs veh, VPS4B / RFU, CREB1 / Fold change vs veh, CREB1 / RFU, DNAJC13 / Fold change vs veh, DNAJC13 / RFU, GNAQ / Fold change vs veh, GNAQ / RFU, CDK5R1 / Fold change vs veh, CDK5R1 / RFU, ZRANB3 / Fold change vs veh, ZRANB3 / RFU, CUL4A / Fold change vs veh, CUL4A / RFU, CCNY / Fold change vs veh, CCNY / RFU, UFL1 / Fold change vs veh, UFL1 / RFU, COG3 / Fold change vs veh, COG3 / RFU, DIAPH2 / Fold change vs veh, DIAPH2 / RFU, SKA2 / Fold change vs veh, SKA2 / RFU, AFF3 / Fold change vs veh, AFF3 / RFU, LMF1 / Fold change vs veh, LMF1 / RFU, IPO11 / Fold change vs veh, IPO11 / RFU, DFFB / Fold change vs veh, DFFB / RFU, FOXP1 / Fold change vs veh, FOXP1 / RFU, CARD8 / Fold change vs veh, CARD8 / RFU, STRN3 / Fold change vs veh, STRN3 / RFU, ADK / Fold change vs veh, ADK / RFU, RASSF2 / Fold change vs veh, RASSF2 / RFU, WIPF1 / Fold change vs veh, WIPF1 / RFU, LARP1B / Fold change vs veh, LARP1B / RFU, RASA1 / Fold change vs veh, RASA1 / RFU, RB1 / Fold change vs veh, RB1 / RFU, PPFIA1 / Fold change vs veh, PPFIA1 / RFU, MAT2A / Fold change vs veh, MAT2A / RFU, CCT5 / Fold change vs veh, CCT5 / RFU, WDR92 / Fold change vs veh, WDR92 / RFU, CUX1 / Fold change vs veh, CUX1 / RFU, TTC7A / Fold change vs veh, TTC7A / RFU, TMEM135 / Fold change vs veh, TMEM135 / RFU, DEPTOR / Fold change vs veh, DEPTOR / RFU, CPM / Fold change vs veh, CPM / RFU, DNAJB6 / Fold change vs veh, DNAJB6 / RFU, CACNA2D3 / Fold change vs veh, CACNA2D3 / RFU, DTX4 / Fold change vs veh, DTX4 / RFU, TFCP2 / Fold change vs veh, TFCP2 / RFU, GMCL1 /// GMCL1P1 / Fold change vs veh, GMCL1 /// GMCL1P1 / RFU, AEBP2 / Fold change vs veh, AEBP2 / RFU, SNHG1 /// SNORD22 /// SNORD25 /// SNORD26 /// SNORD27 /// SNORD28 /// SNORD29 /// SNORD31 / Fold change vs veh, SNHG1 /// SNORD22 /// SNORD25 /// SNORD26 /// SNORD27 /// SNORD28 /// SNORD29 /// SNORD31 / Fold change (Aza/veh), C12orf56 (ProbeSet 11735607_a_at) / Fold change (ACY-1035/veh), C12orf56 (ProbeSet 11735607_a_at) / Fold change (Aza/veh), FGFR1OP (ProbeSet 11751329_s_at) / Fold change (ACY-1035/veh), FGFR1OP (ProbeSet 11751329_s_at) / Fold change (Aza/veh), VPS36 (ProbeSet 11739960_a_at) / Fold change (ACY-1035/veh), VPS36 (ProbeSet 11739960_a_at) / RFU SYPL1 (11715823_x_at) / Fold change /veh SYPL1 (11715823_x_at) / RFU IGFBP7 (11715501_s_at) / Fold change /veh IGFBP7 (11715501_s_at) / RFU REEP3 (11722064_at) / Fold change /veh REEP3 (11722064_at) / RFU IGLL1 (11728026_x_at) / Fold change /veh IGLL1 (11728026_x_at): dose or concentration left out as unconfirmed
# Settings: MV-4-11 cells, 48 hours
smiles,measurement,value
Nc1ccc(-c2cccs2)cc1NC(=O)c1ccc2c(c1)cc(C1CC1)n2CCN1CCOCC1 [ACY-1035],Fold change /veh CASKIN2 (11723855_a_at),1.05
